Source: the supplement of paper PMC12076712

How the values were obtained:
Test in all cases: pIC50, competition of probe 3 labelling in live cells
Settings in all cases: cell material: Jurkat cells
CAMK1D = CAMK1D (UniProt Q8IU85)
LIMK1 = LIMK1 (UniProt P53667)
MAP4K2 = biological target: T1, MAP4K2 (UniProt Q12851)
T1 sequence (whole entry): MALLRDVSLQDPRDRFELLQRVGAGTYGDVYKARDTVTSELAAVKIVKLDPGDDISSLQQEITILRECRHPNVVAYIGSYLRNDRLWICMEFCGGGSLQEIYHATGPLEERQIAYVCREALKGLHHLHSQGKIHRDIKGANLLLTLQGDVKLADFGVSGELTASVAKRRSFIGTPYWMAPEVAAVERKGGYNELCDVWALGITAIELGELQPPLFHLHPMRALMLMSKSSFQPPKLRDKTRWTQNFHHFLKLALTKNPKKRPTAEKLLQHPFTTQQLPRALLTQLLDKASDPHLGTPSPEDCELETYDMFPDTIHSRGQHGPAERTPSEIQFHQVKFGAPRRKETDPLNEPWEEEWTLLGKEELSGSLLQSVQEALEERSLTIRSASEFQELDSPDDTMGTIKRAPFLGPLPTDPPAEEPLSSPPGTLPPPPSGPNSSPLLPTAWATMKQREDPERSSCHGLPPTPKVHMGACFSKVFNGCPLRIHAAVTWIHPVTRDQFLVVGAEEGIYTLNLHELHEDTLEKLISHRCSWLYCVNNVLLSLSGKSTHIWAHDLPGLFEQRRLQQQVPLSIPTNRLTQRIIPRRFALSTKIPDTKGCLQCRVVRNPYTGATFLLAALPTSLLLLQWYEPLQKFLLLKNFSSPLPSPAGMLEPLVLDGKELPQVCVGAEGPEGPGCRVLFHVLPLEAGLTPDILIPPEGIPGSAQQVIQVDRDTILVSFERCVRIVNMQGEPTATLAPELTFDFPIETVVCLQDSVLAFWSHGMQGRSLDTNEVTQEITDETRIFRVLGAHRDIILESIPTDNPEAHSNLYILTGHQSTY

BLK = BLK (UniProt P51451)
Sequence of BLK (P51451 whole entry, looked up): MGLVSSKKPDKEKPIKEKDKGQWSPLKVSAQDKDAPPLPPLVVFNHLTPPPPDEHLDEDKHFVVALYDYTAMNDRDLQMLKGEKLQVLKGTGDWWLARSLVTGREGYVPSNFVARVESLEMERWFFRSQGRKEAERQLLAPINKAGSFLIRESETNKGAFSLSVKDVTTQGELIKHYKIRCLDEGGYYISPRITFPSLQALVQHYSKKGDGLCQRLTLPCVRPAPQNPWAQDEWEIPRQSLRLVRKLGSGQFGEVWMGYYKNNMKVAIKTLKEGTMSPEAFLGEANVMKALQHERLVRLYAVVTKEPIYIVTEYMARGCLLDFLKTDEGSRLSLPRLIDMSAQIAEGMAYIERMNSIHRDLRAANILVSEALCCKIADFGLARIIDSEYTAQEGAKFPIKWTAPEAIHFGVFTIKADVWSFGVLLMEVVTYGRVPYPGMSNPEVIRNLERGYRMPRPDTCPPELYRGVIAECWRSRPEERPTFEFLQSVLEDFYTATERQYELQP

CLK3 = CLK3 (UniProt P49761)
Sequence of CLK3 (P49761 whole entry, looked up): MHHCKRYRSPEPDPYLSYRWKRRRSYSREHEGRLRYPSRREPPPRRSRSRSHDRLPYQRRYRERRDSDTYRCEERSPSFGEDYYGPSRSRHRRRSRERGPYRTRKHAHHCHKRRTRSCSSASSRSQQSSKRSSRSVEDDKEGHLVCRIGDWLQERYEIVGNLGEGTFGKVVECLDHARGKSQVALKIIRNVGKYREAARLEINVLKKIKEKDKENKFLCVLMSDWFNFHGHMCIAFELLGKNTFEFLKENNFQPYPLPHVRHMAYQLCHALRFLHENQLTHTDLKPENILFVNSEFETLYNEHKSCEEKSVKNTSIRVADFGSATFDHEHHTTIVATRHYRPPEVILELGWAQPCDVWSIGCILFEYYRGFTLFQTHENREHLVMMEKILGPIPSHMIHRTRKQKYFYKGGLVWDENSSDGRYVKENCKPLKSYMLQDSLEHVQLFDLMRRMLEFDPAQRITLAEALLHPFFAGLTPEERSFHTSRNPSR

PNPLA6 = PNPLA6 (UniProt Q8IY17)
Sequence of PNPLA6 (Q8IY17 whole entry): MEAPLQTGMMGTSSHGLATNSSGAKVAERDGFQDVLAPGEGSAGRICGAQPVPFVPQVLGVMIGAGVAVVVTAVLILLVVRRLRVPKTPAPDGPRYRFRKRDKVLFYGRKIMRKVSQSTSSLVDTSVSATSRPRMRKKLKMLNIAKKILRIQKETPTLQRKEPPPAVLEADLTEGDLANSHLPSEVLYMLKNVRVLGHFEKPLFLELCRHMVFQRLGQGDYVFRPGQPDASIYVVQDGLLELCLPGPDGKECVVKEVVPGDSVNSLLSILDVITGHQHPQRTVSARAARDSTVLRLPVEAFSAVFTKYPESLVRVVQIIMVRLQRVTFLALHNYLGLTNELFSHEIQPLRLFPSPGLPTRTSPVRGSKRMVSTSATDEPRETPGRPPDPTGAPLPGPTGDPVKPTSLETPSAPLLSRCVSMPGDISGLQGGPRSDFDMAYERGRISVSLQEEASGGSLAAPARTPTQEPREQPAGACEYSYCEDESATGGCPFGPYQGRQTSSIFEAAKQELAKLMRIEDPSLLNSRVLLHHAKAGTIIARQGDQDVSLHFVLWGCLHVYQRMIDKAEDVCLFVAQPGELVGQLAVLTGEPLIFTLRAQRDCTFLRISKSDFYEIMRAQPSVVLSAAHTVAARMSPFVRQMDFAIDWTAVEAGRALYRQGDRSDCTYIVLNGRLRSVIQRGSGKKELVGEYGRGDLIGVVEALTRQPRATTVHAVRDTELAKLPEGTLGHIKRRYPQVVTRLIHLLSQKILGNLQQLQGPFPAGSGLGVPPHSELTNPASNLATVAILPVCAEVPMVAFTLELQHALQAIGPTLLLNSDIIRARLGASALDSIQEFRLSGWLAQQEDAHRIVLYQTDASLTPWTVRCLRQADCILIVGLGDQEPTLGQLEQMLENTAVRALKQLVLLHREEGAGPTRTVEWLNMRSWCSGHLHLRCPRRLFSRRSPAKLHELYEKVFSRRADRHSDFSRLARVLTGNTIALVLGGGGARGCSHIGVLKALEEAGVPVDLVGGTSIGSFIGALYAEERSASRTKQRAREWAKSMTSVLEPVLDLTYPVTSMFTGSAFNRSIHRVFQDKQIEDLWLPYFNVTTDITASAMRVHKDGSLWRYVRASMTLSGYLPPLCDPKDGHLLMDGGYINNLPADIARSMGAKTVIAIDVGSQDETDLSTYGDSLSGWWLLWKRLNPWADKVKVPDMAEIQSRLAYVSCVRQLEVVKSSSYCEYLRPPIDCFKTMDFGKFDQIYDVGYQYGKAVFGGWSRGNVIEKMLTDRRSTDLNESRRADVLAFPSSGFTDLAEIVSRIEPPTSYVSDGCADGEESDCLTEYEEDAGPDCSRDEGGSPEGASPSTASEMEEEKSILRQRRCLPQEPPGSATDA

RABGGTB = RABGGTB (UniProt P53611)
Sequence of RABGGTB (P53611 whole entry): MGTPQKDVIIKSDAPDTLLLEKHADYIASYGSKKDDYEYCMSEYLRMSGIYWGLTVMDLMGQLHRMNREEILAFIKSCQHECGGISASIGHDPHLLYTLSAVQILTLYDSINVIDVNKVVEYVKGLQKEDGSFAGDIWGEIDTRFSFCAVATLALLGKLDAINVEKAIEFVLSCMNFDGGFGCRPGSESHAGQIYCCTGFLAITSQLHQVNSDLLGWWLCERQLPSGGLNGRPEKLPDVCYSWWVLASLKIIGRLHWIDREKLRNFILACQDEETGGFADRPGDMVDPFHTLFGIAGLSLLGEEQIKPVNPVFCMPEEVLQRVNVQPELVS

UniProt O75582 = biological target: UniProt O75582
Sequence of UniProt O75582 (O75582 whole entry, looked up): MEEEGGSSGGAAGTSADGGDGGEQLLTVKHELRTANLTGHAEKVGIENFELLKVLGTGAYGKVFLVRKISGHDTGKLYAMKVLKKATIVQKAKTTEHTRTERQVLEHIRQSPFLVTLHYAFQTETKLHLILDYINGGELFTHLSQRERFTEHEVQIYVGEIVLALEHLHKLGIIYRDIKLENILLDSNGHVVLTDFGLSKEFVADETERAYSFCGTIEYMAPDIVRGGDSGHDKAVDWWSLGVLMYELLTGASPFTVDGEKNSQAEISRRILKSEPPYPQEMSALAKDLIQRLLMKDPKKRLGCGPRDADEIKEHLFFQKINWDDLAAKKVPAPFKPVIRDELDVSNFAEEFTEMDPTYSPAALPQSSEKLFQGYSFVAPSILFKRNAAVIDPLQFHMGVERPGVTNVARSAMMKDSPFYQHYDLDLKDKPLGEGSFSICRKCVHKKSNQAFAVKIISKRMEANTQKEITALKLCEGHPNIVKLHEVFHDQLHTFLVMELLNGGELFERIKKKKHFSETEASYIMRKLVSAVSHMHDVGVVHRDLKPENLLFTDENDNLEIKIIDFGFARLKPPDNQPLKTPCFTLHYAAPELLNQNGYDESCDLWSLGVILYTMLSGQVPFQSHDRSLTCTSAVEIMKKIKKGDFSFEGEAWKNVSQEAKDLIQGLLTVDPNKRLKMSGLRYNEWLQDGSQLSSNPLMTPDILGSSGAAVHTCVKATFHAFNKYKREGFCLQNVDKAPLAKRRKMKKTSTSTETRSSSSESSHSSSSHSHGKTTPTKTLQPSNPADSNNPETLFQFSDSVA

UniProt Q9P289 = biological target: UniProt Q9P289
Sequence of UniProt Q9P289 (Q9P289 whole entry, looked up): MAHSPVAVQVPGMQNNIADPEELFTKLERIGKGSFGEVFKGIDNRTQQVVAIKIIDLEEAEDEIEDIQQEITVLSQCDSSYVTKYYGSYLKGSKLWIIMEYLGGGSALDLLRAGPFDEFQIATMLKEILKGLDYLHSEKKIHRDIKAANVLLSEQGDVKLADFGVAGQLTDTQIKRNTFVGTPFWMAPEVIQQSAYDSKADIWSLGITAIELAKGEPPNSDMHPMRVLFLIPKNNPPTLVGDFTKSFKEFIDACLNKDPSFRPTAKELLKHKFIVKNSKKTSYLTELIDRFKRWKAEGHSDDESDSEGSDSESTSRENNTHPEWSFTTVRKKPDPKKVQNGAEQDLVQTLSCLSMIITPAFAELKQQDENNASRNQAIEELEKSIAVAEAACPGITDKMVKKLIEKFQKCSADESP

Sequence of LIMK1 (P53667 whole entry, looked up): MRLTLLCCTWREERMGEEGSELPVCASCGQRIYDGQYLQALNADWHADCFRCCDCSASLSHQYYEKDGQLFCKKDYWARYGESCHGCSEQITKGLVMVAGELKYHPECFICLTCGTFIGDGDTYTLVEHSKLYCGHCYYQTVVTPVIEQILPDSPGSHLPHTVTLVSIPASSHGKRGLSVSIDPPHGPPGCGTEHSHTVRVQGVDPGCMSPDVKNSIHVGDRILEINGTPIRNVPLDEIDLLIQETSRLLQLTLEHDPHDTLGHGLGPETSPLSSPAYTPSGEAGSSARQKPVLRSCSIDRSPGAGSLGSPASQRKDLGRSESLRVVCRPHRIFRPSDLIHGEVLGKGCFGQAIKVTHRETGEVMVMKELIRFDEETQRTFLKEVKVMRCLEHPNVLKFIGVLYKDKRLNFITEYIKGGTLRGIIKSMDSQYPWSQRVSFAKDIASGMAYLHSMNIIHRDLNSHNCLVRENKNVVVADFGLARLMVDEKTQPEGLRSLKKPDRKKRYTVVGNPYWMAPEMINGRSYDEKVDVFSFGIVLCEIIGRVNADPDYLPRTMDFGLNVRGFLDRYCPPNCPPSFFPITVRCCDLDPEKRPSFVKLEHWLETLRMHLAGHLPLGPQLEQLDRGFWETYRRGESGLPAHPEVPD
Sequence of CAMK1D (Q8IU85 whole entry, looked up): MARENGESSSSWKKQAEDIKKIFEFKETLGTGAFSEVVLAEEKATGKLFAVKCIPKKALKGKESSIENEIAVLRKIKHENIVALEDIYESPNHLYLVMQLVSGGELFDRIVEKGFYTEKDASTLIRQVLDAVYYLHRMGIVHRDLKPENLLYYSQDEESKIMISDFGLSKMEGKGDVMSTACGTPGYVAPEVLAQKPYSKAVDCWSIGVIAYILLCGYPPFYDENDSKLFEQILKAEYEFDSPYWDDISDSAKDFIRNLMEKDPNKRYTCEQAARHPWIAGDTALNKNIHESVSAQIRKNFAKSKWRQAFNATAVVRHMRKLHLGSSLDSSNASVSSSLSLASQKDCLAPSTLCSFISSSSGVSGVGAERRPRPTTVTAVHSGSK

pIC50 (CAMK1D) | pIC50 (LIMK1) | pIC50 (MAP4K2) | pIC50 (BLK) | pIC50 (CLK3) | pIC50 (PNPLA6) | pIC50 (RABGGTB) | pIC50 (UniProt O75582) | pIC50 (UniProt Q9P289) | SMILES
< 4.52 | < 4.52 | < 4.52 |  |  |  |  |  |  | CC#CC(=O)Nc1ccc2ncnc(Nc3cccc(Br)c3)c2c1 [EKI-785]
 |  |  | < 4.52 | < 4.52 | < 4.52 | < 4.52 | < 4.52 | < 4.52 | CCc1cnn2c(NCc3ccc[n+]([O-])c3)cc(N3CCCC[C@H]3CCO)nc12 [dinaciclib]
